The source made the active and inactive calls. The rule behind the calls is not given here.
Experiments:
Coagulation factor X = Coagulation factor X (Homo sapiens, UniProt P00742); assay: Binding affinity to human factor 10a assessed as release of p-nitroaniline after 10 to 120 mins by spectrophotometric analysis
Coagulation factor VII = target: T1, Coagulation factor VII (Homo sapiens, UniProt P08709); assay: Binding affinity to human factor 7a assessed as release of p-nitroaniline after 10 to 120 mins by spectrophotometric analysis
T1 sequence (P08709 whole entry): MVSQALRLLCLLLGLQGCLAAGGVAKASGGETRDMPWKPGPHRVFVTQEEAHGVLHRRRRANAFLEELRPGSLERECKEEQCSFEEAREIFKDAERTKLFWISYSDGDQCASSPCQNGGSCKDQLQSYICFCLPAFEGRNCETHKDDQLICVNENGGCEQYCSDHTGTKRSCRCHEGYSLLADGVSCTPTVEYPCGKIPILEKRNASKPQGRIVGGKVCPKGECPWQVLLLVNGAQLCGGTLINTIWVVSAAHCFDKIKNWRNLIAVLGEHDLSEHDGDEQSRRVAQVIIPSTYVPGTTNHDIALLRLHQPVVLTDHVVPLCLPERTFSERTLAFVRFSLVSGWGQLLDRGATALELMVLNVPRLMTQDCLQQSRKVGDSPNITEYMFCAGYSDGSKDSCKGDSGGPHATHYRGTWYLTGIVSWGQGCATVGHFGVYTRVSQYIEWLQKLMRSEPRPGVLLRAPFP

Coagulation factor XI [1] = target: T2, Coagulation factor XI (Homo sapiens, UniProt P03951); assay: Binding affinity to human factor 11a assessed as release of p-nitroaniline after 10 to 120 mins by spectrophotometric analysis
T2 sequence (P03951 19-387 limits assumed): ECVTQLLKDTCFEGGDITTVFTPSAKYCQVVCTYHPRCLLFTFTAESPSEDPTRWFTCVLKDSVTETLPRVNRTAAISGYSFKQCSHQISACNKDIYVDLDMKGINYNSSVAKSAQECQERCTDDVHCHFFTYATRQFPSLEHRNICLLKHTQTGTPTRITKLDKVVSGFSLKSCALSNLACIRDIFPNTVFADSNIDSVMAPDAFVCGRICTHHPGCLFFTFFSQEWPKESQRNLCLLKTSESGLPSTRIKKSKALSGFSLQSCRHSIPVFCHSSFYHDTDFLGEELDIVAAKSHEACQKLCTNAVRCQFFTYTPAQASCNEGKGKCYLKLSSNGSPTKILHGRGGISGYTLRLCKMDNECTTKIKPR
T2 sequence (P03951 388-625 limits assumed): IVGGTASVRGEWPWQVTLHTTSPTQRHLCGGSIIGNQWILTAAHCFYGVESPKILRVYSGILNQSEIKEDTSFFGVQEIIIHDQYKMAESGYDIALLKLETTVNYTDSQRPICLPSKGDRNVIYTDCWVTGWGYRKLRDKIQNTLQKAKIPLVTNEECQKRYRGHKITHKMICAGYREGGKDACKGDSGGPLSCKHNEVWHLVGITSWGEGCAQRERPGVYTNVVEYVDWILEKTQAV

Homo sapiens [2] = species: Homo sapiens; assay: Selectivity ratio of Ki for human factor 10a to Ki for human factor 11a
Homo sapiens [3] = species: Homo sapiens; assay: Selectivity ratio of Ki for human factor 7a to Ki for human factor 11a
Plasma = assay: Anticoagulant activity in human plasma assessed as concentration required to double activated partial thromboplastin time; assay type: functional
Oryctolagus cuniculus = assay: Antithrombotic activity in rabbit arteriovenous-shunt thrombosis model assessed as inhibition of clot formation compound administered as single bolus dose followed by five continuous infusion dose; assay type: functional
Coagulation factor XI [4] = target: T2, Coagulation factor XI; assay: Mixed-type inhibition of human factor 11a
Coagulation factor XI [5] = target: T2, Coagulation factor XI; assay: Competitive inhibition of human factor 11a assessed as release of p-nitroaniline after 10 to 120 mins by Michaelis-Menten equation analysis

Sequence of Coagulation factor X (P00742 41-179 limits assumed): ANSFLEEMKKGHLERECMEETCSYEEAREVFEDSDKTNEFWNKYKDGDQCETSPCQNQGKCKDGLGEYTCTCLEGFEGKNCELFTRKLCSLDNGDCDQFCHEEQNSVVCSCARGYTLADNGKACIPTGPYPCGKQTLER
Sequence of Coagulation factor X (P00742 235-488 limits assumed): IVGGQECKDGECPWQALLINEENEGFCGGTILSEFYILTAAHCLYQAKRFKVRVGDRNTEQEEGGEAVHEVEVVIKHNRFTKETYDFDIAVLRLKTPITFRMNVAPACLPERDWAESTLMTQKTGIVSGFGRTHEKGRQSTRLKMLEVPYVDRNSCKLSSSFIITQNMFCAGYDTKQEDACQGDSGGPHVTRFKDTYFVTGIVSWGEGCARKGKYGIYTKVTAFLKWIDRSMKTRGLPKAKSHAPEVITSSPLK

Row | Ki (Coagulation factor X) | Ki (Coagulation factor VII) | Ki (Coagulation factor XI [1]) | Ratio Ki (Homo sapiens [2]) | Ratio Ki (Homo sapiens [3]) | inhibition (Coagulation factor XI [4]) | inhibition (Coagulation factor XI [5]) | SMILES | EC (Plasma) | inhibition (Oryctolagus cuniculus)
1 | > 15000 nM | 237 nM | 37 nM | – | – | – | – | C[C@]1(c2ccccc2)C[C@@H](c2cccc(-c3ccc(NS(C)(=O)=O)cc3C(=O)O)c2)Nc2ccc(C(=N)N)cc21 (racemic) | – | –
2 | 1100 nM | 95 nM | 25 nM | 40 | 4 | – | – | CC(C)CNC(=O)c1ccc(-c2ccccc2[C@@H]2C[C@H](c3ccccc3)c3cc(C(=N)N)ccc3N2)c(C(=O)O)c1 (racemic) | – | –
3 | 1940 nM | 2200 nM | 110 nM | – | – | – | – | N=C(N)c1ccc2c(c1)[C@@H](c1ccccc1)C[C@@H](c1ccccc1-c1ccccc1C(=O)O)N2 (racemic) | – | –
4 | 970 nM | 290 nM | 8.5 nM | 100 | 30 | – | – | N=C(N)c1ccc2c(c1)[C@@H](c1ccccc1)C[C@@H](c1ccccc1-c1ccc(C(=O)O)cc1C(=O)O)N2 (racemic) | – | –
5 | – | – | 2400 nM | – | – | – | – | N=C(N)c1ccc2c(c1)[C@@H](c1ccccc1)C[C@@H](c1ccccc1-c1ccc(C(=O)O)cc1)N2 (racemic) | – | –
6 | 24 nM | 25 nM | 23 nM | – | – | – | – | CC(C)CNC(=O)c1ccc(-c2cccc([C@@H]3C[C@H](c4ccccc4)c4cc(C(=N)N)ccc4N3)c2)c(C(=O)O)c1 (racemic) | – | –
7 | 130 nM | 89 nM | 3.9 nM | 30 | 20 | – | – | N=C(N)c1ccc2c(c1)[C@@H](c1ccccc1)C[C@@H](c1cccc(-c3ccc(C(=O)O)cc3C(=O)O)c1)N2 (racemic) | – | –
8 | 9300 nM | 2600 nM | 61 nM | – | – | – | – | C[C@]1(c2ccccc2)C[C@@H](c2cccc(-c3ccc(C(=O)O)cc3C(=O)O)c2)Nc2ccc(C(=N)N)cc21 (racemic) | – | –
9 | – | – | 830 nM | – | – | – | – | CC[C@]1(c2ccccc2)C[C@@H](c2cccc(-c3ccc(C(=O)O)cc3C(=O)O)c2)Nc2ccc(C(=N)N)cc21 (racemic) | – | –
10 | – | – | 1960 nM | – | – | – | – | CCC[C@]1(c2ccccc2)C[C@@H](c2cccc(-c3ccc(C(=O)O)cc3C(=O)O)c2)Nc2ccc(C(=N)N)cc21 (racemic) | – | –
11 | 3000 nM | 280 nM | 1.5 nM | – | – | – | – | C[C@]1(c2ccccc2)C[C@@H](c2cccc(-c3ccc(C(N)=O)cc3C(=O)O)c2)Nc2ccc(C(=N)N)cc21 (racemic) | 8.6 µM | –
12 | 1140 nM | 451 nM | 15 nM | – | – | – | – | CNC(=O)Nc1ccc(-c2cccc([C@@H]3C[C@](C)(c4ccccc4)c4cc(C(=N)N)ccc4N3)c2)c(C(=O)O)c1 (racemic) | – | –
13 | 2060 nM | 867 nM | 48 nM | – | – | – | – | C[C@]1(c2ccccc2)C[C@@H](c2cccc(-c3ccc(C#N)cc3C(=O)O)c2)Nc2ccc(C(=N)N)cc21 (racemic) | – | –
14 | 3980 nM | 275 nM | 64 nM | – | – | – | – | C[C@]1(c2ccccc2)C[C@@H](c2cccc(-c3ccc(N)cc3C(=O)O)c2)Nc2ccc(C(=N)N)cc21 (racemic) | – | –
15 | 606 nM | 442 nM | 79 nM | – | – | – | – | COC(=O)c1ccc(-c2cccc([C@@H]3C[C@](C)(c4ccccc4)c4cc(C(=N)N)ccc4N3)c2)c(C(=O)O)c1 (racemic) | – | –
16 | 6700 nM | 3060 nM | 110 nM | – | – | – | – | C[C@]1(c2ccccc2)C[C@@H](c2cccc(-c3ccccc3C(=O)O)c2)Nc2ccc(C(=N)N)cc21 (racemic) | – | –
17 | 5810 nM | 705 nM | 110 nM | – | – | – | – | CC(=O)Nc1ccc(-c2cccc([C@@H]3C[C@](C)(c4ccccc4)c4cc(C(=N)N)ccc4N3)c2)c(C(=O)O)c1 (racemic) | – | –

Row | Ki (Coagulation factor X) | Ki (Coagulation factor VII) | Ki (Coagulation factor XI [1]) | Ratio Ki (Homo sapiens [2]) | Ratio Ki (Homo sapiens [3]) | inhibition (Coagulation factor XI [4]) | inhibition (Coagulation factor XI [5]) | SMILES | EC (Plasma) | inhibition (Oryctolagus cuniculus)
18 | 4100 nM | 1960 nM | 154 nM | – | – | – | – | CNC(=O)c1ccc(-c2cccc([C@@H]3C[C@](C)(c4ccccc4)c4cc(C(=N)N)ccc4N3)c2)c(C(=O)O)c1 (racemic) | – | –
19 | 1310 nM | 1770 nM | 207 nM | – | – | – | – | CC(C)NC(=O)c1ccc(-c2cccc([C@@H]3C[C@](C)(c4ccccc4)c4cc(C(=N)N)ccc4N3)c2)c(C(=O)O)c1 (racemic) | – | –
20 | > 15000 nM | 610 nM | 466 nM | – | – | – | – | CN(C)Cc1ccc(-c2cccc([C@@H]3C[C@](C)(c4ccccc4)c4cc(C(=N)N)ccc4N3)c2)c(C(=O)O)c1 (racemic) | – | –
21 | 6400 nM | 1290 nM | 540 nM | – | – | – | – | CC(C)(C)NC(=O)c1ccc(-c2cccc([C@@H]3C[C@](C)(c4ccccc4)c4cc(C(=N)N)ccc4N3)c2)c(C(=O)O)c1 (racemic) | – | –
22 | 8350 nM | 16300 nM | 26 nM | – | – | – | – | C[C@]1(c2ccccc2)C[C@H](c2cccc(-c3ccc(C(N)=O)cc3C(=O)O)c2)Nc2ccc(C(=N)N)cc21 (racemic) | – | –
23 | 57 nM | 41 nM | 7.6 nM | – | – | – | – | N=C(N)c1ccc2c(c1)[C@@H](c1ccccc1)C[C@@H](c1cc(N)cc(-c3ccccc3C(=O)O)c1)N2 (racemic) | – | –
24 | 2250 nM | 56 nM | 0.64 nM | – | – | – | – | C[C@]1(c2ccccc2)C[C@@H](c2cc(N)cc(-c3ccc(C(N)=O)cc3C(=O)O)c2)Nc2ccc(C(=N)N)cc21 (racemic) | 1.2 µM | –
25 | 1810 nM | 230 nM | 1 nM | – | – | – | – | CC(=O)Nc1cc(-c2ccc(C(N)=O)cc2C(=O)O)cc([C@@H]2C[C@](C)(c3ccccc3)c3cc(C(=N)N)ccc3N2)c1 (racemic) | 2.1 µM | –
26 | 1480 nM | 450 nM | 0.69 nM | – | – | – | – | CCC(=O)Nc1cc(-c2ccc(C(N)=O)cc2C(=O)O)cc([C@@H]2C[C@](C)(c3ccccc3)c3cc(C(=N)N)ccc3N2)c1 (racemic) | 3.4 µM | –
27 | 641 nM | 520 nM | 0.3 nM | – | – | – | – | CCCC(=O)Nc1cc(-c2ccc(C(N)=O)cc2C(=O)O)cc([C@@H]2C[C@](C)(c3ccccc3)c3cc(C(=N)N)ccc3N2)c1 (racemic) | 4.1 µM | –
28 | 880 nM | 474 nM | 0.72 nM | – | – | – | – | C[C@]1(c2ccccc2)C[C@@H](c2cc(NC(=O)C3CC3)cc(-c3ccc(C(N)=O)cc3C(=O)O)c2)Nc2ccc(C(=N)N)cc21 (racemic) | 4.5 µM | –
29 | 784 nM | 1010 nM | 0.59 nM | – | – | – | – | CC(C)CC(=O)Nc1cc(-c2ccc(C(N)=O)cc2C(=O)O)cc([C@@H]2C[C@](C)(c3ccccc3)c3cc(C(=N)N)ccc3N2)c1 (racemic) | 6.1 µM | –
30 | 2330 nM | 86 nM | 0.39 nM | – | – | – | – | CC1(c2ccccc2)CC(c2cccc(-c3ccc(C(N)=O)cc3C(=O)O)c2)Nc2ccc(C(=N)N)cc21 (single isomer, unassigned; (+)) [listing 1 of 2 here] | – | –
31 | – | – | – | > 1000 | 200 | – | – | CC1(c2ccccc2)CC(c2cccc(-c3ccc(C(N)=O)cc3C(=O)O)c2)Nc2ccc(C(=N)N)cc21 (single isomer, unassigned; (+)) [listing 2 of 2 here] | – | –
32 | 5670 nM | > 10900 nM | 230 nM | – | – | – | – | CC(C)CC(=O)Nc1cc(-c2ccc(C(N)=O)cc2C(=O)O)cc(C2CC(C)(c3ccccc3)c3cc(C(=N)N)ccc3N2)c1 (single isomer, unassigned; enantiomer 1) | – | –
33 | > 15000 nM | > 15000 nM | 335 nM | – | – | – | – | CC1(c2ccccc2)CC(c2cccc(-c3ccc(C(N)=O)cc3C(=O)O)c2)Nc2ccc(C(=N)N)cc21 (single isomer, unassigned; enantiomer 2) | – | –
34 | – | – | – | – | – | Active | Active | CC(C)CC(=O)Nc1cc(-c2ccc(C(N)=O)cc2C(=O)O)cc(C2CC(C)(c3ccccc3)c3cc(C(=N)N)ccc3N2)c1 (single isomer, unassigned; enantiomer 2) | – | Dose-dependent effect
